Assay [1] is described as follows: Concentration required to inhibit 50% activity of prostaglandin synthetase was determined in mouse vas deferens.
A short description of assay [2]: Concentration required to inhibit 50% activity of prostaglandin synthetase was determined in vitro in mouse brain microsomes.

Some results are limits rather than exact numbers.

One may read the IC50 as the point on the concentration scale where inhibition reaches its midpoint. On to `Cc1c(C(=O)c2cccc3ccccc23)c2ccccc2n1CCN1CCOC(O)C1` (centres undefined), for which, in assay [1], 0.57 µM corresponded to half-maximal inhibition (IC50). Consider `COc1ccc(C(=O)c2cn(CCN3CCOCC3)c3ccccc23)cc1`, for which the IC50 in assay [1] was 5 µM; in assay [2], greater than 30 µM.

On to `COc1ccc(C(=O)c2c(C)n(CCN3CCOCC3)c3ccccc23)cc1` [(s-cis) -(4-Methoxy-phenyl)-[2-methyl-1-(2-morpholin-4-yl-ethyl)-1H-indol-3-yl]-methanone], for which, in assay [1], the IC50 was greater than 30 µM.

The values above are taken from BindingDB's records for doi:10.1021/jm00107a034 (Sterling Research Group, 1991).
